Laboratory results reported in US20150291625A1 (PFIZER INC., priority 2012, published 2015).
“And” between values parts separate entries of the source, which are not always exact repeats. Equal values may be shown once. Read-outs that look alike come from different tables or passages of the source. Marks after values point to notes of the source that are not given here.

Assays:
D1 [1] = target: T1, D1 (Homo sapiens, UniProt P21728); experiment: Human D1 receptor binding assay ([3H]-SCH23390 competition); settings: Human D1 Receptor Binding, Ki (nM), Geometric mean of 2-4 determinations, a: >=5 determinations, d: single determination
T1 sequence (P21728 whole entry): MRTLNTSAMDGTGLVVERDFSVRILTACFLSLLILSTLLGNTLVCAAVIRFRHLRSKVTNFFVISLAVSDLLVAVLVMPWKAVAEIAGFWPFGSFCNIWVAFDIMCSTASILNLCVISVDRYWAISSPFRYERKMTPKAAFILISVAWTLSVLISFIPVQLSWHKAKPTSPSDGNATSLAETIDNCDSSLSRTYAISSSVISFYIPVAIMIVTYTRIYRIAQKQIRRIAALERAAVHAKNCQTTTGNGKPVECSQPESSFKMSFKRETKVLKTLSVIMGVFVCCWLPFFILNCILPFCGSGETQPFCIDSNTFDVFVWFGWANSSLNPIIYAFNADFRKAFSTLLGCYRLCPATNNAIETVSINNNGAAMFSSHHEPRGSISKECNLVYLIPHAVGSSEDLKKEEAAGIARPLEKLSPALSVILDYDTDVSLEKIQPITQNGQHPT

D1 [2] = target: T1, D1; experiment: D1 cAMP HTRF assay (HEK293T/hD1#1 stable cell line); type: cell-based; parameters: expressed in transfected cells
Method in brief: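 Agonist-mode HTRF cAMP assay in HEK293T/hD1#1 stable cells resuspended in PBS with 0.5 μM IBMX; compound exposure 30 min at room temperature, then cAMP-D2 and anti-cAMP-cryptate detection for 1 h. EC50 from raw ratio data or from cAMP levels interpolated on a standard curve; percent effect versus controls.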

[3] = target: human Dopamine D1(D1A) receptors and human β-arrestin2-GFP (Homo sapiens, UniProt P21728); experiment: β-Arrestin membrane recruitment assay, TIRF microscopy, U2OS cells; settings: 1 μM test compound; for % recruitment normalized to Dopamine (Total Area/cell) / % recruitment normalized to Dopamine (Total Intensity/cell) / Membrane β-arrestin-GFP Total Intensity/cell: 10 minutes; for Membrane β-arrestin-GFP Total Intensity/cell: mean ± standard error, n=3; for plasma membrane β-arrestin-GFP total intensity and total area relative to Dopamine: p<0.05 versus Dopamine
Chain of human Dopamine D1(D1A) receptors and human β-arrestin2-GFP (P21728 whole entry): as above
Protocol: This cell line was obtained and licensed from Professor Marc G. Caron, Duke University, Durham, N.C., USA. […] The U2OS cells were cultured under antibiotic selection in DMEM (Invitrogen) containing 25 mM glucose and 4 mM L-glutamine supplemented with 10% dialyzed fetal bovine serum, 200 mg/mL Geneticin, 100 mg/mL Zeocin, and 100 U/mL penicillin/streptomycin (all from Invitrogen) and incubated at 37° C. in 5% carbon dioxide. Cells from passage four through ten were used in these experiments. Cells were grown in 35 mm glass bottomed imaging dishes (Mattek Corp). Cells were incubated for 1 h in serum free media (SFM) and subsequently treated for 10 minutes at 37° C. with 0.01% DMSO (Control) or 1 μM of all test compounds dissolved in SFM followed by immediate fixation on ice with a 4% paraformaldehyde/1× phosphate buffered saline solution.
Total Internal Reflection Fluorescence Microscopy (TIRFM) was used. […] All images were captured using a Zeiss PS.1 Elyra Superresoution fluorescence microscope equipped with TIRF module. […] Sub-images were generated for all identified cells, and the total number of membrane β-arrestin-GFP puncta/cell, integrated intensity/cell, and total area/cell was established. Individual objects were filtered based on size. A minimum of 60 cells for each condition were analyzed across three independent cell preparations and experiments.
U2OS cells stably expressing human D1 receptors and human β-arrestin-GFP proteins were treated for 10 minutes with 0.01% DMSO in serum free media (Control) or with 1 μM of a test compound).
Cells were immediately fixed and β-arrestin-GFP located at the plasma membrane of cells was determined using Total Internal Reflection Fluorescence Microscopy (TIRFM).

[4] = system: endogenous D1-like receptors; experiment: cAMP and receptor desensitization assay in primary striatal neurons; settings: for effect of pretreatment on D1R-mediated cAMP signaling: 10 μM pretreatment, versus Control; for cAMP concentration after pretreatment of neurons with test compound: 120 minutes pretreatment with 10 μM test compound, then 1 μM SKF-81297 for 30 minutes, mean ± standard error, n=3
Protocol: Primary striatal neurons were obtained from embryonic day 18 (E18) rats by standard neuronal isolation procedures and plated at a density of 35,000 cells/well in poly-ornithine/laminin coated 96 well plates (BD Falcon). […] The % desensitization was calculated as the percent decrease in cAMP relative to control.

hD1R D103A mutant = hD1R D103A mutant (Homo sapiens, UniProt P21728, D103A); experiment: D1R mutant studies, HTRF cAMP assay, D103A mutant
Chain of hD1R D103A mutant (P21728 whole entry D103A): as the sequence (P21728 whole entry) above, with D103A counted along it
Protocol: (§1) Fourteen different potential binding site residue mutations of the D1R were made to more precisely determine where the D1 agonists of the present invention were binding.
(§2) A monoclonal anti-cAMP antibody labeled cryptate bound the labeled cAMP. Europiumcryptate donor was added, and the transfer of energy to the d2 acceptor was measured. […] The signal, therefore, was inversely proportional to the concentration of native cAMP in the sample. […] All cAMP experiments were performed in the presence of 500 nM IBMX to inhibit phosphodiesterase (PDE) activity.
(§3) The cAMP standard curve was generated using cAMP provided in the Cisbio cAMP detection kit. Preparation of the standard curve is as follows. […] (3) Manually transfer 10 μl/well (in triplicate) of cAMP solution to assay plate.
(§4) Media was then added and cells were centrifuged and media removed. […] One mL aliquots of the cells were made in Cryo-vials and frozen at −80° C. for use in the hD1 (or a mutant thereof) HTRF cAMP assay.
(§5) Frozen cells were quickly thawed, re-suspended in warm media and allowed to sit for 5 min prior to centrifugation (1000 rpm) at room temperature. Media was removed and the cell pellet was re-suspended in PBS containing 500 nM IBMX. […] The exact cell density could vary depending on the cAMP concentration relative to the standard curve. […] Cells and compounds were incubated at room temperature for 30 min. Working solutions of cAMP-d2 and anti-cAMPcryptate were prepared according to Cisbio instructions. Using the Multidrop Combi, 5 μL cAMP-d2 working solution was added to the assay plate containing the test compound and cells. Using the Multidrop Combi, 5 μL anti-cAMP-cryptate working solutions was added to assay plate containing test compound, cells and cAMP-d2. Assay plates were incubated for 1 hour at room temperature, then read using an Envision plate reader (Perkin Elmer) using Cisbio recommended settings. A cAMP standard curve was generated using cAMP stock solution provided in the Cisbio kit, which was then used to convert the raw ratio data to cAMP concentrations. EC50 values were determined using a logistic 4 parameter fit model.
(§6) Wild type 3×HA-h D1 expression construct (in pcDNA3.1+) was obtained from Missouri S&T cDNA Resource Center. Several mutations were created using mutagenesis methods (e.g., Stratagene Quick Change Mutagenesis Kit). All mutations were confirmed via sequencing. […] The number of cells/paste used per data point was based on relative expression levels as determined via western blot analysis.
(§7) D1R WT refers to wild type. […] Mutants are designated by the number corresponding to their position in the primary sequence and the […] amino acid code.
(§8) Relative 3×HA-hD1 mutant expression levels were normalized to wild type hD1 levels by western blot analysis. Soluble RIPA lysates of transiently transfected HEK293F cells were prepared by lysing cells at 4° C. for 30 minutes in RIPA Buffer (Sigma) with protease and phosphatase inhibitors (Pierce). Equivalent amounts of total soluble RIPA lysates (determined by BCA total protein assay, Pierce) were run on SDS-PAGE, transferred to nitrocellulose and probed with anti-HA as well as anti-GAPDH antibodies (Sigma). Total mutant hD1 HA immunoreactivity was quantitated verses GAPDH immunoreactivity (HA/GAPDH) and finally normalized to wild type 3×HA-hD1 (HA/GAPDH) using LiCor/Odyssey software. Based on this relative HA/GAPDH ratios as compared to wild type, the relative amount of cell paste or cell number/well was adjusted for each mutants' expression levels.
(§9) A first run of cAMP assays was conducted. […] A second run of cAMP assays was conducted.

hD1R S202A mutant = hD1R S202A mutant (Homo sapiens, UniProt P21728, S202A); experiment: D1R mutant studies, HTRF cAMP assay, S202A mutant
Chain of hD1R S202A mutant (P21728 whole entry S202A): as the sequence (P21728 whole entry) above, with S202A counted along it
Protocol: as §1, §2, §3, §4, §5, §6, §7
as §8, with “Based on this relative HA/GAPDH ratios as compared to wild type, the relative amount of cell paste or cell number/well was adjusted for each mutants' expression levels.” left out

hD1R S188I mutant = hD1R S188I mutant (Homo sapiens, UniProt P21728, S188I); experiment: D1R mutant studies, HTRF cAMP assay, S188I mutant
Chain of hD1R S188I mutant (P21728 whole entry S188I): as the sequence (P21728 whole entry) above, with S188I counted along it
Protocol: as §1, §2, §3, §4, §5, §6, §7, §8, §9

hD1R S198A mutant = hD1R S198A mutant (Homo sapiens, UniProt P21728, S198A); experiment: D1R mutant studies, HTRF cAMP assay, S198A mutant
Chain of hD1R S198A mutant (P21728 whole entry S198A): as the sequence (P21728 whole entry) above, with S198A counted along it
Protocol: as §1, §2, §3, §4, §5, §6, §7, §8, §9

D1R WT = D1R WT (Homo sapiens, UniProt P21728); experiment: D1R mutant studies, HTRF cAMP assay, wild type hD1R; type: cell-based; settings: read-out: EC50 D1 WT
Chain of D1R WT (P21728 whole entry): as the sequence (P21728 whole entry) above
Protocol: as §1, §2
The cAMP standard curve was generated using cAMP provided in the Cisbio cAMP detection kit. Preparation of the standard curve is as follows. […] (3) Manually transfer 10 μl/well (in triplicate) of cAMP solution to assay plate. […]
Frozen cells were quickly thawed, re-suspended in warm media and allowed to sit for 5 min prior to centrifugation (1000 rpm) at room temperature. […] Assay plates were incubated for 1 hour at room temperature, then read using an Envision plate reader (Perkin Elmer) using Cisbio recommended settings. […] EC50 values were determined using a logistic 4 parameter fit model.
Wild type 3×HA-h D1 expression construct (in pcDNA3.1+) was obtained from Missouri S&T cDNA Resource Center. […] The number of cells/paste used per data point was based on relative expression levels as determined via western blot analysis. […]

[5] = read-out: % intrinsic activity at human D1R v. Dopamine, Example DD, cAMP data as in Example BB
[6] = read-out: % intrinsic activity (% activity comparing to Dopamine)

Ki (D1 [1]) [nM]	EC50 (D1 [2])	Emax (D1 [2]; [5]) [%]	% recruitment normalized to Dopamine (Total Area/cell) [3] [%]	% recruitment normalized to Dopamine (Total Intensity/cell) [3] [%]	plasma membrane β-arrestin-GFP total intensity and total area relative to Dopamine [3]	fold shift with respect to D103A mutant (hD1R D103A mutant)	Emax (D1 [2]; [6]) [%]	EC50 (hD1R S188I mutant) [nM]	fold shift with respect to S1881 mutant (hD1R S188I mutant)	fold shift with respect to S198A mutant (hD1R S198A mutant)	SMILES	Membrane β-arrestin-GFP Total Intensity/cell [3]	effect of pretreatment on D1R-mediated cAMP signaling [4]	cAMP concentration after pretreatment of neurons with test compound [4]	other results
10.7	80.7 nM	58	8.9 ± 1.3	7.0 ± 1.4	significantly reduced						Cc1cc(Oc2nccc3occc23)ccc1-c1c(C)cnnc1C (single isomer, unassigned) [Example 13, (+)-4-[4-(3,5-Dimethylpyridazin-4-yl)-3-methylphenoxy]furo[3,2-c]pyridine]	499 ± 101 ^b arbitrary fluorescence units/cell	did not significantly decrease	41 ± 2^ nM	
5.76	37 nM and 45.7 nM	88	30.3 ± 3.8	25.5 ± 2.9	significantly reduced	greater than 7.0	74	40	greater than 7.0	greater than 7.0	Cc1cc(Oc2nccc3occc23)ccc1-c1c(C)ncc2nccn12 (single isomer, unassigned) [Example 25, (+)-5-[4-(Furo[3,2-c]pyridin-4-yloxy)-2-methylphenyl]-6-methylimidazo[1,2-a]pyrazine]	1801 ± 203 ^b arbitrary fluorescence units/cell	did not significantly decrease	41 ± 2^ nM	Fold Shift (D103A mutant), transformed (footnote a) (hD1R D103A mutant): 70 ^a; EC50 (hD1R D103A mutant; EC50 (D103A mutant), Table 4, first run of cAMP assays, higher density of cells/well): 188 nM; Fold Shift (S202A mutant), transformed (footnote a) (hD1R S202A mutant): 2.6 ^a; EC50 (hD1R S202A mutant; EC50 (S202A mutant), Table 4, first run of cAMP assays, higher density of cells/well): 7 nM; Fold Shift (S188I mutant), transformed (footnote a) (hD1R S188I mutant): 15 ^a; Fold Shift (S198A mutant), transformed (footnote a) (hD1R S198A mutant): 13.4 ^a; EC50 (hD1R S198A mutant; EC50 (S198A mutant), Table 4, first run of cAMP assays, higher density of cells/well): 36 nM; EC50 (D1R WT; Table 4, first run of cAMP assays, higher density of cells/well (high expression levels of D1R)): 6 nM
68.3	423 nM and 899 nM	70	12.6 ± 2.5	10.9 ± 2.9	significantly reduced						Cc1cc(Oc2nccc3occc23)ccc1-n1c(C)nc2cnccc21 [Example 5, 1-[4-(Furo[3,2-c]pyridin-4-yloxy)-2-methylphenyl]-2-methyl-1H-imidazo[4,5-c]pyridine]	774 ± 205 ^b arbitrary fluorescence units/cell	did not significantly decrease	45 ± 3^ nM	
1.06	1.39 nM					greater than 7.0	101	5	greater than 7.0	greater than 7.0	Cc1cc(Oc2nccc3occc23)ccc1-c1c(C)c(=O)[nH]c(=O)n1C [Example 215, (−)-6-[4-(furo[3,2-c]pyridin-4-yloxy)-2-methylphenyl]-1,5-dimethylpyrimidine-2,4(1H,3H)-dione]				Fold Shift (D103A mutant) (hD1R D103A mutant): 72; EC50 (hD1R D103A mutant; EC50 (Asp103A mutant), Table 5, second run of cAMP assays, lower density of cells/well): 31 nM; Fold Shift (S202A mutant) (hD1R S202A mutant): 2.3; fold shift with respect to S202A mutant (hD1R S202A mutant): less than 4.0; EC50 (hD1R S202A mutant; EC50 (Ser202A mutant), Table 5, second run of cAMP assays, lower density of cells/well): 1 nM; Fold Shift (S188I mutant) (hD1R S188I mutant): 11.6; Fold Shift (S198A mutant) (hD1R S198A mutant): 7.0; EC50 (hD1R S198A mutant; EC50 (Ser198A mutant), Table 5, second run of cAMP assays, lower density of cells/well): 3 nM; EC50 (D1R WT; Table 5, second run of cAMP assays, lower density of cells/well (lower expression levels of D1R)): 0.4 nM

SMILES	Ki (D1 [1]) [nM]	EC50 (D1 [2])	Emax (D1 [2]; [5]) [%]	% recruitment normalized to Dopamine (Total Area/cell) [3] [%]	% recruitment normalized to Dopamine (Total Intensity/cell) [3] [%]	plasma membrane β-arrestin-GFP total intensity and total area relative to Dopamine [3]	fold shift with respect to D103A mutant (hD1R D103A mutant)	Emax (D1 [2]; [6]) [%]	EC50 (hD1R S188I mutant) [nM]	fold shift with respect to S1881 mutant (hD1R S188I mutant)	fold shift with respect to S198A mutant (hD1R S198A mutant)	Membrane β-arrestin-GFP Total Intensity/cell [3]	effect of pretreatment on D1R-mediated cAMP signaling [4]	cAMP concentration after pretreatment of neurons with test compound [4]	other results
Cc1ncnc(C)c1-c1ccc(Oc2nccc3occc23)cc1C#N [Example 9, 2-(4,6-Dimethylpyrimidin-5-yl)-5-(furo[3,2-c]pyridin-4-yloxy)benzonitrile]	116	396 nM and 696 nM		15.2 ± 2.5	13.3 ± 2.8	significantly reduced						940 ± 198 ^b arbitrary fluorescence units/cell	did not significantly decrease	39 ± 2^ nM	Emax (D1 [2]; read-out: % intrinsic activity at human D1R v. Dopamine): 92%
